For experiment [1], the target named is VEGFR2 (Homo sapiens, UniProt P35968). Nature of the experiment: VEGFR2 biochemical assay. The settings on record: exact potency beyond measurable limit. Here is the method:
(§1) Suitable screening assays for RET and VEGFR2 small molecule kinase inhibitors (from a kinase-directed fragment (KDF) library) were established. The RET kinase assay utilizes an EZ Reader Electrophoresis Mobility Chip Instrument (Caliper Life Science). In the assay, 2 nM recombinant RET enzyme (Invitrogen) is pre-incubated with a small molecule inhibitor or control buffer for 30 min to allow the Type-II kinase inhibitor to trap the DFG-out conformation to which the inhibitors bind. This class of inhibitors is indirectly competitive with ATP, and slow binding kinetics (low kd) allow the inhibitors to appear non-competitive and pseudo-irreversible in nature. Because of the non-competitive nature of these inhibitors, a more biologically relevant concentration of ATP substrate (200 μM) was incorporated in this assay. After 30 min of pre-incubation, a substrate mix containing […], 20 mM MgCl2 and 1.5 μM fluorescently labeled RET substrate peptide (Caliper LS, peptide 22; Perkin Elmer, USA) was added. The conversion level of the RET substrate peptide was then determined utilizing the EZ Reader instrument. Similarly, VEGFR2 and RET/V804M kinase assays have also been established using the same peptide substrate.
The VEGFR-2 assay was identical to the RET assay except that 1-2 nM recombinant VEGFR-2 was used instead of RET.

Experiment [2] concerns the target gatekeeper mutant RETV804M (Homo sapiens, UniProt P07949, V804M). The experiment is described as follows: RET/V804M kinase assay. The settings on record: biochemical assay; exact potency beyond measurable limit. Here is the method:
as §1

In experiment [3] the test system is HRAS(G12V) transformed NIH3T3 fibroblasts. Nature of the experiment: NIH3T3 HRAS(G12V) tumors in nude mice. The format is in vivo, BALB/c nu/nu mice. The settings on record: 1.0, 3.0 or 10 mg/kg daily, oral gavage. The source says:
FIG. 8: Anti-tumorigenic activity of Pz-1 in nude mice implanted with RET/C634Y or HRAS(G12V) transformed NIH3T3 fibroblasts. […] Average tumor volume (±SD: standard deviations) is reported. NIH3T3 RET/C634Y (200,000 cells) or NIH3T3 HRAS/G12V (50,000 cells) were inoculated subcutaneously into dorsal portion (both sides) of 6-week-old female BALB/c nu/nu mice (n. 31 mice/cell line) (Jackson Laboratories, Bar Harbor, Me.). After 4 days, before tumors had appeared, animals were randomly assigned to receive Pz-1 (1.0, 3.0 or 10 mg/kg daily) (23 mice/cell line: 8 mice/group for 1.0 and 3.0 mg/kg daily doses and 7 mice for 10 dose mg/kg daily) or vehicle control (8 mice) by oral gavage. Tumor diameters were measured with calipers every 1-2 days. Tumor volumes (V) were calculated by the rotational ellipsoid formula and reported as average volumes±standard deviations. […]
TT cells (7.5×10^6/mouse) were inoculated subcutaneously into dorsal portions (both sides) of 39 SCID mice (Jackson Laboratories, Bar Harbor, Me.). […] Tumor diameters were measured with callipers every week. Tumor volumes (V) were calculated by the rotational ellipsoid formula: V=A×B^2/2 (A=axial diameter; B=rotational diameter) and reported as average volumes±standard deviations. […] Anti-tumorigenic activity of Pz-1 was also assessed in nude mice implanted with RET/C634Y or HRAS(G12V) transformed NIH3T3 fibroblasts. […]

Experiment [4] deals with TT cells xenografted. The experiment is described as follows: TT cell xenograft in SCID mice. The format is in vivo. The settings on record: 0.3, 1.0, or 3.0 mg/kg daily, oral gavage, 28 days; all tested doses. From the text: FIG. 7: Anti-tumorigenic activity of Pz-1 on TT cells xenografted into SCID mice. […] Average volumes of tumors are reported±SD (standard deviation). TT cells (7.5×10^6/mouse) were inoculated subcutaneously into dorsal portions (both sides) of 39 female SCID mice (Jackson Laboratories, Bar Harbor, Me.). After 5 weeks, at least one tumour was present in each mouse and a total of 70 tumours were visible: 56 tumours were 40-150 mm^3 and 14 tumours were <40 mm^3. […] Tumor-bearing animals were randomly assigned to receive Pz-1 (0.3, 1.0, or 3.0 mg/kg, daily) (29 mice, 52 tumours) or vehicle (10 mice, 18 tumours) by oral gavage. Treatment was administered for 28 consecutive days. Tumor diameters were measured with calipers every week. Tumor volumes (V) were calculated by the rotational ellipsoid formula: V=A×B^2/2 (A=axial diameter; B=rotational diameter) and reported as average volumes±standard deviations. […]
TT cells (7.5×10^6/mouse) were inoculated subcutaneously into dorsal portions (both sides) of 39 SCID mice (Jackson Laboratories, Bar Harbor, Me.). […] Tumor diameters were measured with callipers every week. Tumor volumes (V) were calculated by the rotational ellipsoid formula: V=A×B^2/2 (A=axial diameter; B=rotational diameter) and reported as average volumes±standard deviations. […] Tumor diameters were measured with calipers every 1-2 days. […]

gatekeeper mutant RETV804M, sequence (P07949 29-1114 V804M): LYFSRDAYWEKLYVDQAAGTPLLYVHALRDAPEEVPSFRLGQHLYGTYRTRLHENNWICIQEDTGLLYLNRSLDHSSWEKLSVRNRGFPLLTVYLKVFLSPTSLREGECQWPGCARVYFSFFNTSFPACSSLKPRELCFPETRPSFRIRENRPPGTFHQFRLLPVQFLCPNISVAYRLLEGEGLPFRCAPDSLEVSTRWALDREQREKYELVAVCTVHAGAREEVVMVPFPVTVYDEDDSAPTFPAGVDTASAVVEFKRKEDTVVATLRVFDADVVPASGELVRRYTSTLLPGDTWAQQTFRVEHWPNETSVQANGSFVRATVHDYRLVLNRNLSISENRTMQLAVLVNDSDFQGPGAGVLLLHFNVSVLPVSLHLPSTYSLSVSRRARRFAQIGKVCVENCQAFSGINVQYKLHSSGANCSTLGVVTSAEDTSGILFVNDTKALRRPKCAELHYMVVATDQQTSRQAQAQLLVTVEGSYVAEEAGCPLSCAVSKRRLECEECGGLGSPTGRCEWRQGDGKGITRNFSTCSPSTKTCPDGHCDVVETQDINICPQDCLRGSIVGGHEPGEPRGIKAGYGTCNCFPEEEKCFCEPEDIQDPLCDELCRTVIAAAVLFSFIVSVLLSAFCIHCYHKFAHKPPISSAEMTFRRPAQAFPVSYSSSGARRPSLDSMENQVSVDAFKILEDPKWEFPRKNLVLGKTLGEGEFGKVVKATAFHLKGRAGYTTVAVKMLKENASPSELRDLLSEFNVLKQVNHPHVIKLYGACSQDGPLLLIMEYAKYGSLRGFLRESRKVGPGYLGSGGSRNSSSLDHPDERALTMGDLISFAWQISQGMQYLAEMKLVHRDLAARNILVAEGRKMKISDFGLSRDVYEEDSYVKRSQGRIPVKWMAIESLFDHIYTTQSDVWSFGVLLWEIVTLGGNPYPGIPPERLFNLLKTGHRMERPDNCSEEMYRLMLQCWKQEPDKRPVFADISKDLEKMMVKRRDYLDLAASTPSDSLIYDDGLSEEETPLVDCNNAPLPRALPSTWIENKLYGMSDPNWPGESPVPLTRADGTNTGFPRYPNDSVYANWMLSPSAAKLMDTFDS
VEGFR2, sequence (P35968 834-1162 limits assumed): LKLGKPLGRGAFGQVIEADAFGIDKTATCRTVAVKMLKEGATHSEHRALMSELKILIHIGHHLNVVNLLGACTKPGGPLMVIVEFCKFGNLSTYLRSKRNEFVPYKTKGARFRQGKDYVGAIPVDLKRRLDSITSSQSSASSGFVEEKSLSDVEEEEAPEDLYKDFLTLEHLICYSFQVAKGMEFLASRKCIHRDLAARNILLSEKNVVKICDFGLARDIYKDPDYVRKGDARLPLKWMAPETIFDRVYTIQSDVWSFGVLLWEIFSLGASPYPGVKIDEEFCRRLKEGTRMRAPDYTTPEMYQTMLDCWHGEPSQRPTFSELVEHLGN

As for `Cn1cc(-c2ccc3c(c2)ncn3-c2ccc(CC(=O)Nc3cc(C(C)(C)C)on3)cc2)cn1` [Pz-1, N-(5-(tert-butyl)isoxazol-3-yl)-2-(4-(5-(1-methyl-1H-pyrazol-4-yl)-1H-benzo[d]imidazol-1-yl)phenyl)acetamide], the concentration for half-maximal inhibition (IC50) in experiment [1] and in experiment [2] was below 1 nM each time. Moreover, the “formation of tumors driven by the HRAS oncogene” value in experiment [3] is recorded as “only reduced, but did not abrogate”. Also, the tumor growth result in experiment [4] is recorded as “strongly inhibited tumor growth”.

The values above are taken from patent publication US9988371B2, “Benzimidazole analogues and related methods” (The Arizona Board of Regents, on Behalf of the University …, priority 2014, dated 2018).
